Where a chain is given by its changes, count along the chain named.

Common to all, as to type: cell-based
The target in assay [1] is T1, Y82^2.61A M1 mAChR (Homo sapiens, UniProt P11229, Y82A).
T1 construct: expressed in transfected cells
T1 sequence (P11229 1-460 Y82A): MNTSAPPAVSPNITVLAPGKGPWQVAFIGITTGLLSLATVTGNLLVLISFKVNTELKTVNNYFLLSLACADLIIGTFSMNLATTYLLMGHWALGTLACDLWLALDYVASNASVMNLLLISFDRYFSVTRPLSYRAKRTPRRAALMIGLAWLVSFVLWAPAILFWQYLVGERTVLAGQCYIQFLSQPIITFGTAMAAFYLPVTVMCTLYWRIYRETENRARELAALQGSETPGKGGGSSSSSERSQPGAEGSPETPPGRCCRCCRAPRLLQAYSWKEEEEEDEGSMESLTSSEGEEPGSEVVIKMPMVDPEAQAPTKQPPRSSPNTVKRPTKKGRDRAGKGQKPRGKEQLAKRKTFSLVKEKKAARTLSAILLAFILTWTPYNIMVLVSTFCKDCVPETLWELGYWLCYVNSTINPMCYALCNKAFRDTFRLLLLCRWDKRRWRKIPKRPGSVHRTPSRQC
The assay is described as follows: IP-One (IP1) accumulation assay, FlpIn CHO cells. The conditions noted are these: for LogτB (logarithm of functional efficacy of the modulator): corrected for receptor expression levels relative to WT; for τB (functional efficacy of the modulator, antilog in brackets): corrected for receptor expression relative to WT; for Logαβ (logarithm of functional cooperativity between ACh and modulator): pKB constrained to Table 1, β constrained to 1. The method, then: (§1) The IP-One assay kit (Cisbio) was used for the direct quantitative measurement of myo-Inositol 1 phosphate (IP1). Cells were seeded at 25,000 per well into 96-well transparent cell culture plates and incubated overnight at 37 °C. […] Cells were then lysed with IP1 lysis buffer (50 mM HEPES pH 7.0, 15 mM KF, 1.5% V/V Triton-X-100, 3% V/V FBS, 0.2% W/V BSA), and IP1 levels were measured by incubation of cell lysates with FRET reagents (the cryptate-labeled anti-IP1 antibody and the d2-labeled IP1 analogue) for 1 h at 37 °C. […] Signals were expressed as the FRET ratio: F = (fluorescence665 nm/fluorescence590 nm) × 10^4, and normalized to the response to maximal ACh concentration (100 µM).
(§2) (Eq. (2)) was used:(2) Y=Basal+Em-Basal/1+KA+A/τA where Em is the maximal possible system response and Basal is the response in the absence of agonist. [A] denotes the concentration of ligand, and KA represents its equilibrium dissociation constants. τ denotes the intrinsic efficacy of the ligand, which incorporates the total receptor density and the efficiency of stimulus-response coupling.
(§3) Functional interaction studies between orthosteric agonists and allosteric modulators in IP1 assays were analysed using the following operational model of allosterism and agonism (Eq. (3)):(3) E=Basal+Em-BasalAKB+αβB+τBBEC50/EC50KB+B+AKB+αβB+τBBEC50 where Em is the maximal possible system response, and Basal is the response in the absence of agonist. KB is the equilibrium dissociation constant of allosteric ligand, and EC50 is the concentration of orthosteric agonist required to achieve half maximal response. [A] and [B] denote concentrations of orthosteric and allosteric ligands, respectively. α and β denote allosteric effects on orthosteric ligand binding affinity and efficacy, respectively, and τB denotes the efficacy of allosteric ligand. This model assumes that ACh is a full agonist at the receptor in both the absence/presence of modulator and/or there is no efficacy modulation (i.e., β = 1).

Assay [2] addresses T2, F77^2.56I M1 mAChR (Homo sapiens, UniProt P11229, F77I).
T2 construct: expressed in transfected cells
T2 sequence (P11229 1-460 F77I): T1 sequence (P11229 1-460 Y82A) with F77I, A82Y
The assay is described as follows: IP-One (IP1) accumulation assay, FlpIn CHO cells. The conditions noted are these: for LogτB (logarithm of functional efficacy of the modulator): corrected for receptor expression levels relative to WT; for τB (functional efficacy of the modulator, antilog in brackets): corrected for receptor expression relative to WT; for Logαβ (logarithm of functional cooperativity between ACh and modulator): pKB constrained to Table 1, β constrained to 1. On the procedure: as §1, §2, §3

Assay [3] deals with T3, W400^7.35A M1 mAChR (Homo sapiens, UniProt P11229, W400A).
T3 construct: expressed in transfected cells
T3 sequence (P11229 1-460 W400A): T1 sequence (P11229 1-460 Y82A) with A82Y, W400A
The assay is described as follows: IP-One (IP1) accumulation assay, FlpIn CHO cells. On the procedure:
as §1, §2, §3

Assay [4] deals with T4, WT M1 mAChR (Homo sapiens, UniProt P11229).
T4 construct: expressed in transfected cells
T4 sequence (P11229 1-460): T1 sequence (P11229 1-460 Y82A) with A82Y
The assay is described as follows: IP-One (IP1) accumulation assay, CHO-hM1 cells. The conditions noted are these: for αβ (functional cooperativity with ACh, antilog in brackets) / Logαβ (logarithm of functional cooperativity between ACh and modulator): non-alkylated; for Logαβ (logarithm of functional cooperativity between ACh and modulator): pKB constrained to Table 1, β constrained to 1. On the procedure:
as §1, §2, §3

Consider `Cn1cc(-c2ccc(COc3ccccc3-c3cc(=O)n(C4CCCCC4O)cn3)cc2)cn1` (stereo not drawn) [MIPS1780, 3-(2-hydroxycyclohexyl)-6-(2-((4-(1-methyl-1H-pyrazol-4-yl)-benzyl)oxy)phenyl)pyrimidin-4(3H)-one], for which, in assay [1], the “αβ (functional cooperativity with ACh, antilog in brackets)” value stood at 91; the “LogτB (logarithm of functional efficacy of the modulator)” value (“LogτB” for short) was found to be 1.85 ± 0.12; the “τB (functional efficacy of the modulator, antilog in brackets)” value amounted to 71; the “Logαβ (logarithm of functional cooperativity between ACh and modulator)” value (“Logαβ” below) was found to be 1.96 ± 0.14. For the same compound, in assay [2], the “αβ (functional cooperativity with ACh, antilog in brackets)” value amounted to 63; the “LogτB” value is 1.52 ± 0.06; the “τB (functional efficacy of the modulator, antilog in brackets)” value was determined as 33; the “Logαβ” value is 1.80 ± 0.15. In assay [3], the “Modulation of ACh-stimulated IP1 accumulation” value (shortened to “Modulation”) is recorded as “abolished”. For the same compound, in assay [4], the “LogτB” value came out at 1.00 ± 0.05; the “τB (functional efficacy of the modulator, antilog in brackets)” value is given as 10; the “αβ (functional cooperativity with ACh, antilog in brackets)” value was 59; the “Logαβ” value is given as 1.77 ± 0.14.
Consider `Cc1cnc(C(=O)N[C@H]2CCOC[C@@H]2O)cc1Cc1ccc(-c2cscn2)cc1` [PF-06767832, N-((3R,4S)-3-hydroxytetrahydro-2H-pyran-4-yl)-5-methyl-4-(4-(thiazol-4-yl)benzyl)pyridine-2-carboxamide], for which, in assay [1], the “αβ (functional cooperativity with ACh, antilog in brackets)” value stood at 46; the “LogτB” value is reported as 0.95 ± 0.12; the “τB (functional efficacy of the modulator, antilog in brackets)” value was 9; the “Logαβ” value stood at 1.66 ± 0.12. In assay [2], the “αβ (functional cooperativity with ACh, antilog in brackets)” value is given as 112; the “LogτB” value is 1.51 ± 0.07; the “τB (functional efficacy of the modulator, antilog in brackets)” value stood at 32; the “Logαβ” value is 2.05 ± 0.13. For the same compound, the “Modulation” value in assay [3] is listed as “abolished”. Besides, in assay [4], the “LogτB” value was found to be 1.01 ± 0.03; the “τB (functional efficacy of the modulator, antilog in brackets)” value was 10; the “αβ (functional cooperativity with ACh, antilog in brackets)” value was 83; the “Logαβ” value is 1.92 ± 0.11.
As to `Cn1cc(-c2ccc(Cn3cc(C(=O)N[C@H]4CCCC[C@@H]4O)c4c(F)cc(F)cc43)cn2)cn1` [VU6004256, 4,6-difluoro-N-(1S,2S)-2-hydroxycyclohexyl-1-((6-(1-methyl-1H-pyrazol-4-yl)pyridine-3-yl)methyl)-1H-indole-3-carboxamide], in assay [1], the “αβ (functional cooperativity with ACh, antilog in brackets)” value is reported as 19; the “LogτB” value is reported as 0.50 ± 0.10; the “τB (functional efficacy of the modulator, antilog in brackets)” value is 3; the “Logαβ” value is reported as 1.29 ± 0.10. For the same compound, in assay [2], the “αβ (functional cooperativity with ACh, antilog in brackets)” value came to 51; the “LogτB” value is on record as 1.43 ± 0.06; the “τB (functional efficacy of the modulator, antilog in brackets)” value came to 27; the “Logαβ” value amounted to 1.71 ± 0.15. Besides, the “Modulation” value in assay [3] is reported as “abolished”. For the same compound, in assay [4], the “LogτB” value came out at 1.24 ± 0.05; the “τB (functional efficacy of the modulator, antilog in brackets)” value is recorded as 17; the “αβ (functional cooperativity with ACh, antilog in brackets)” value amounted to 60; the “Logαβ” value was determined as 1.78 ± 0.18.

The values above are taken from article PMC6066355, “Probing the binding site of novel selective positive allosteric modulators at the M1 muscarinic acetylcholine receptor” (Biochemical Pharmacology, 2018).
